Assays:
[1] = target: T1, rat α-1D (Rattus norvegicus, UniProt P23944); assay: RSAT assay, α-1D receptor; format: cell-based; conditions: NA = not active (EC50 ≧ 10,000)
T1 construct: expressed in transfected cells; host or cells: NIH-3T3
T1 sequence (P23944 1-561): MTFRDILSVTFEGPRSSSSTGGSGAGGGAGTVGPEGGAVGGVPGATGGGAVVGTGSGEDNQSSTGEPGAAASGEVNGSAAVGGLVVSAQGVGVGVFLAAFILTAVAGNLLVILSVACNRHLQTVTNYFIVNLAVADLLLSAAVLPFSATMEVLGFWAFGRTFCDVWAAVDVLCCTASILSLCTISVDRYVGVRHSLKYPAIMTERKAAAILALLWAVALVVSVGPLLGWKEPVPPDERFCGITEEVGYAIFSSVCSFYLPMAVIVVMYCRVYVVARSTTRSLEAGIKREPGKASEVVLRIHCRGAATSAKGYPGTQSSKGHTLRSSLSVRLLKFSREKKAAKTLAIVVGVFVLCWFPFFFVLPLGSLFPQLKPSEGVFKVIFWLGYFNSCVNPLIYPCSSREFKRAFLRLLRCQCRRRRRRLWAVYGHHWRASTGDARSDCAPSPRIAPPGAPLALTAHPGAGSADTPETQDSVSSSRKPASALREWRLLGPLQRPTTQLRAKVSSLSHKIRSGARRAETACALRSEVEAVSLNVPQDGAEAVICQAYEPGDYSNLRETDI
Description: Agonist and antagonist activity, including selectivity and specificity, can be characterized using any of a variety of routine assays, including, without limitation, Receptor Selection and Amplification Technology (RSAT) assays (Messier et al., Pharmacol. Toxicol. 76:308-11 (1995); Conklin et al., Nature 363:274-6 (1993)); cyclic AMP assays (Shimizu et al., J. Neurochem. 16:1609-1619 (1969)); and cytosensor microphysiometry assays (Neve et al., J. Biol. Chem. 267:25748-25753 (1992)). Such assays generally are performed using cells that naturally express only a single α-adrenergic receptor subtype, or using transfected cells expressing a single recombinant α-adrenergic receptor subtype. The adrenergic receptor can be a human receptor or homolog thereof having a similar pharmacology. As disclosed herein, RSAT assays were performed using cells transiently transfected with human α-2A (c10 gene); rat α-2B (RNG gene); human α-2C (c4 gene); bovine α-1A; hamster α-1B; and rat α-1D.
The RSAT assay measures receptor-mediated loss of contact inhibition resulting in selective proliferation of receptor-containing cells in a mixed population of confluent cells. The increase in cell number is assessed with an appropriate detectable marker gene such as β-galactosidase, if desired, in a high throughput or ultra high throughput assay format. Receptors that activate the G protein, Gq, elicit the proliferative response. α-adrenergic receptors, which normally couple to Gi, activate the RSAT response when coexpressed with a hybrid Gq protein containing a Gi receptor recognition domain, designated Gq/i5.
As an example, an RSAT assay can be performed essentially as follows. […] After washing with phosphate-buffered saline, β-galactosidase activity is determined by adding 200 μl of chromogenic substrate (3.5 mM O-nitrophenyl-β-D-galactopyranoside/0.5% NP-40 in phosphate buffered saline), incubating overnight at 30°, and measuring optical density at 420 nm. […] The EC50 and maximal effect (efficacy) of each drug at each receptor is determined.

[2] = test system: Chung model rats; assay: Chung rat nerve ligation model, tactile allodynia reversal (Von Frey); format: in vivo; conditions: for allodynia reversal, single oral dose: Compound 3 30 μg/kg, Compound 11 0.1 mg/kg, Compound 4 0.3 mg/kg; for Peak allodynia reversal (dose): intraperitoneal injection, dose (3-300 μg/kg); for allodynia reversal: osmotic minipump 0.1 mg/kg/hour for five days; for persistence of analgesic effects after treatment: subcutaneous osmotic minipump 0.1 mg/kg/hour, seven days; for maintenance of the analgesic effect after minipump removal: osmotic minipump for five days, four week test period
Method: The Chung rat nerve ligation model is a well accepted model of peripheral neuropathic pain. In the Chung model, partial ligation of left spinal nerves L-5 and L-6 produces a long-lasting hypersensitivity to light touch on the affected left foot. The hypersensitivity is similar to pain experienced by humans with the neuropathic condition of causalgia (Kim and Chung, Pain 50:355-363 (1992)).
Chung rat surgeries of about 20 minutes duration were performed essentially as follows. Male Sprague-Dawley rats weighing 100 to 120 grams were anesthetized with isofluorane. After shaving and preparing the surgical site with betadine, an incision was made from thoracic vertebra XIII down toward the sacrum, and muscle separated from spinal vertebra (left side) at the L4-S2 levels. The L6 vertebra were located, and the transverse process carefully removed with a small rongeur to visually identify the L4-L6 spinal nerves. L5 and L6 spinal nerves were isolated and tightly ligated with 6-0 silk thread; the wound was sutured after complete hemostasis was confirmed. A small amount of antibiotic ointment was applied to the incised area before transferring the animals to a plastic recovery cage under a regulated heat-temperature lamp. Animals were not treated with any topical or local anesthetics post-operatively.
Assessment of pain in Chung model rats was performed by applying a light tactile stimulus (Von Frey hair) to the affected surgical paw as follows. A 50% pain threshold was established by applying the Von Frey hair in an up-and-down manner to the plantar surface of the surgical paw with just enough force to bend them. A positive response was recorded if the paw was withdrawn sharply. The 50% paw withdrawal threshold was determined using the method of Dixon et al., Ann. Rev. Pharmacol. Toxicol. 20:441-462 (1980). The post-drug threshold was compared to the pre-drug threshold, and the precent reversal of tactile sensitivity calculated based on a normal threshold of 15.1 grams. The results were expressed as % allodynia reversal, reflecting the percentage reversal of pain threshold relative to a normal rat (100%).
Chung surgeries were performed, and pain assessed as described above. Drugs administered via osmotic minipump were delivered as follows. ALZET (Cupertino, Calif.) minipumps (Model #1007D) were implanted subcutaneously on the rats' back between the shoulder blades. Pumps were filled with test solution prior to surgery, which was performed with aseptic procedures and sterilized surgical instruments. After anesthetization with isoflorane and midline incision between the shoulder blades through the muscle, a subcutaneous pocket was exposed. The minipump was inserted into the exposed pocket, before stapling the wounds closed and allowing animals to recover under a warming light.
ALZET osmotic minipumps (model 1007D) hold a total volume of 100 μl and delivered drug at the set rat of 0.5 μl per hour the indicated time period. Drugs were administered at the indicated rate, typically 100 μg/hr/kg, dissolved in 50% DMSO, with the concentration of drug in the pump varied depending on animal weight. […]

Row | Compound | EC50 [1] [nM] | allodynia reversal, single oral dose [2] | Peak allodynia reversal (dose) [2] | allodynia reversal [2] | analgesia, agonist given alone ([2]; peripheral (intraperitoneal) administration, Chung rats, Compound 2 100 μg/kg, clonidine 100 μg/kg, Compound 3 1 to 1000 μg/kg) | time by which the analgesic effect was gone ([2]; single oral dose) | time to analgesic effect ([2]; single oral dose) | persistence of analgesic effects after treatment [2] | maintenance of the analgesic effect after minipump removal [2] | oral dose sufficient for an analgesic effect ([2]; single oral dose) [mg/kg] | allodynia reversal and duration at 1 mg/kg oral ([2]; single oral dose 1 mg/kg, compared with 0.3 mg/kg)
1 | O=C1c2ccccc2CCC1Cc1c[nH]c(=S)[nH]1 (racemic) [Compound 3] | > 2000 | 70-100% | 81% +/− 10% | about 80% | significant analgesia without producing sedation | ≤ 2 h | less than 20 minutes | continued for over a month after treatment was concluded |  |  | 
2 | O=c1[nH]cc(CC2CCc3cc(F)ccc32)[nH]1 (stereo not shown) [Compound 4] | > 2000 | 60-80% | 80% +/− 6.5% | about 80% |  | essentially no pain relief was observed after four hours |  | continued for over a month after treatment was concluded | maintained at essentially the same level over the entire four week test period | 0.03 | the allodynia was reversed to a greater extent, and the pain relief was of longer duration
3 | S=c1[nH]cc(CC2CC=CC2)[nH]1 [Compound 11] | > 2000 | 60-90% |  | about 80% |  | ≤ 2 h |  |  | maintained at essentially the same level over the entire four week test period |  | 

From patent publication US7345065B2, “Methods and compositions for alleviating pain” (Allergan, Inc., priority 2002, dated 2008)
